Laboratory results from PubChem BioAssay (NCI).
“And” between values parts separate entries of the source, which are not always exact repeats. Equal entries are not always repeated.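 Exposure lasted 48 hours, with cells grown in 96-well plates and compounds tested at five concentrations. GI50: concentration for 50% inhibition of growth. TGI marks complete inhibition of growth.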

Assays:
Test in all cases: NCI anticancer screen, dose series, 48 h
CCRF-CEM leukemia = tested on: CCRF-CEM leukemia
SNB-19 CNS = tested on: SNB-19 CNS
SK-OV-3 ovarian = tested on: SK-OV-3 ovarian
COLO 205 colon = tested on: COLO 205 colon
HCC-2998 colon = tested on: HCC-2998 colon
HL-60(TB) leukemia = tested on: HL-60(TB) leukemia
RPMI-8226 leukemia = tested on: RPMI-8226 leukemia
MOLT-4 leukemia = tested on: MOLT-4 leukemia
TK-10 renal = tested on: TK-10 renal
UACC-62 melanoma = tested on: UACC-62 melanoma

| Compound | GI50 (CCRF-CEM leukemia) | TGI (CCRF-CEM leukemia) | GI50 (SNB-19 CNS) | TGI (SNB-19 CNS) | GI50 (SK-OV-3 ovarian) | TGI (SK-OV-3 ovarian) | GI50 (COLO 205 colon) | TGI (COLO 205 colon) | GI50 (HCC-2998 colon) | TGI (HCC-2998 colon) | GI50 (HL-60(TB) leukemia) | TGI (HL-60(TB) leukemia) | GI50 (RPMI-8226 leukemia) | TGI (RPMI-8226 leukemia) | GI50 (MOLT-4 leukemia) | TGI (MOLT-4 leukemia) | GI50 (TK-10 renal) | TGI (TK-10 renal) | GI50 (UACC-62 melanoma) | TGI (UACC-62 melanoma) |
| --- | --- | --- | --- | --- | --- | --- | --- | --- | --- | --- | --- | --- | --- | --- | --- | --- | --- | --- | --- | --- |
| C/C(=N\NC(=O)c1ccncc1)c1ccccc1O | 0.742 µM | > 100 µM | 8.23 µM | > 100 µM | 4.84 µM | > 100 µM | 2.62 µM | > 100 µM | 2.37 µM | 68.7 µM | 2.96 µM | 11.6 µM | 4.68 µM | > 100 µM | 2.35 µM | > 100 µM | 3.03 µM | > 100 µM | 3.04 µM | 18.9 µM |
| CC(C)c1nc(Cl)c(Cl)c(Cl)n1 | – | 9.33 µM | – | 36.2 µM | – | 37.9 µM | – | 11.9 µM | – | 15.7 µM | – | 5.4 µM | – | 14.7 µM | – | 11.4 µM | – | 28.8 µM | – | 23.1 µM |
| CN1CCN(Cc2ccc(NC(=O)c3cncc(C#Cc4cnc5cccnn45)c3)cc2C(F)(F)F)CC1 | 1.52 µM | 15.2 µM | 1.8 µM | 5.62 µM | 1.67 µM | 5.21 µM | 1.02 µM | 2.91 µM | 1.31 µM | 4.24 µM | 0.818 µM | 2.44 µM | 1.11 µM | 3.05 µM | 1.42 µM | 5.34 µM | 1.88 µM | 6.03 µM | 1.33 µM | 4.46 µM |
| NC1CC(n2ccc(=O)[nH]c2=O)OC1C(O)CO (stereo unspecified) | – | > 100 µM | – | > 100 µM | – | > 100 µM | – | > 100 µM | – | > 100 µM | – | > 100 µM | – | > 100 µM | – | > 100 µM | – | > 100 µM | – | > 100 µM |
| CCOC(=O)/C(=C/c1ccc[nH]1)P(=O)(OCC)OCC | – | > 100 µM | – | > 100 µM | – | > 100 µM | – | > 100 µM | – | > 100 µM | – | > 100 µM | – | > 100 µM | – | > 100 µM | – | > 100 µM | – | > 100 µM |
| O=C1COc2c(CCNCCN(C(=O)CCNCCc3ccc(Cl)c(Cl)c3)C3CCCCC3)ccc(O)c2N1 | 11 µM | 27.6 µM | 15 µM | 31 µM | 16 µM | 30.8 µM | 14.8 µM | 32.3 µM | 18.7 µM | 35.1 µM | 14.2 µM | 32.1 µM | 14.5 µM | 33.8 µM | 15.8 µM | 34.5 µM | 14.1 µM | 28.8 µM | 15.5 µM | 30.4 µM |
| CCC(=C(c1ccc(OCCN(CC)CC)cc1)c1ccc(OCCN(CC)CC)cc1)c1ccc(Cl)cc1 | 0.641 µM | 1.74 µM | 0.584 µM | 1.09 µM | 0.594 µM | 1.16 µM | 0.631 µM | 1.32 µM | 0.532 µM | 1.02 µM | 0.626 µM | 1.32 µM | 0.714 µM | 1.64 µM | 0.583 µM | 1.3 µM | 0.528 µM | 1.1 µM | 0.592 µM | 1.13 µM |
| O=[N+]([O-])c1cccc(C2=NOC3CCCC23)c1 (stereo unspecified) | – | > 100 µM | – | > 100 µM | – | > 100 µM | – | > 100 µM | – | > 100 µM | – | > 100 µM | – | > 100 µM | – | > 100 µM | – | > 100 µM | – | > 100 µM |
| CC(=O)Nc1ccc(C(=O)COc2cccc(/C=C3\CCc4ccccc4C3=O)c2)cc1 | 2.31 µM | 6.09 µM | 17.4 µM | 51.7 µM | 30.1 µM | > 100 µM | 17.2 µM | 34.5 µM | 17.7 µM | 32.2 µM | 4.4 µM | 22.7 µM | 1.82 µM | 4.97 µM | 4.3 µM | 20.9 µM | 28.2 µM | > 100 µM | 12.5 µM | 32.7 µM |
| CS(=O)(=O)Nc1ccc(Nc2c3ccccc3nc3cc(Cl)ccc23)cc1 | 0.317 µM | 33.7 µM | 1.51 µM | 17.5 µM | 1.28 µM | 13.3 µM | 1.51 µM | 15.6 µM | 7.57 µM | 22.9 µM | 0.843 µM | 24.6 µM | 2.56 µM | 25.6 µM | 0.214 µM | 16.2 µM | 5.07 µM | 18.7 µM | 0.988 µM | 12.9 µM |
| Brc1ccc2c(c1)-c1ccccc1C1=NCCN12 | 1.74 µM | 4.93 µM | 2.17 µM | 11.6 µM | 2.88 µM | 16.6 µM | 0.652 µM | 2.33 µM | 1.3 µM | 8.49 µM | 2.45 µM | 5.65 µM | 1.71 µM | 4.95 µM | 0.419 µM | 3.73 µM | 1.5 µM | 7.18 µM | 1.69 µM | 3.24 µM |
| O=C1COc2cc3c(cc2N1)SCC(=O)N3 | – | > 100 µM | – | > 100 µM | – | > 100 µM | – | > 100 µM | – | > 100 µM | – | > 100 µM | – | > 100 µM | – | > 100 µM | – | > 100 µM | – | > 100 µM |
| COc1cc2nccc(Oc3ccc(NC(=O)C4(C(=O)Nc5ccc(F)cc5)CC4)cc3)c2cc1OC | > 10 µM and 3.65 µM | > 100 µM | > 10 µM and 7.69 µM | > 100 µM | > 10 µM and 5.83 µM | > 10 µM and 42.3 µM | 6 µM and 2.1 µM | > 10 µM and 4.63 µM | > 10 µM and 6.29 µM | > 100 µM | > 10 µM and 3.87 µM | > 10 µM and 21.6 µM | > 10 µM and 4.09 µM | > 57.7 µM | > 10 µM and 3.44 µM | > 59.1 µM | > 10 µM and 3.76 µM | > 10 µM and 39.5 µM | 4.74 µM and 1.97 µM | > 10 µM and 32.3 µM |
| COc1cc(/C=C/C(=O)c2c(-c3ccc(Cl)cc3)nc3sc(C)nn23)cc(OC)c1OC | 3.92 µM | 87.7 µM | > 100 µM | > 100 µM | 66.6 µM | > 100 µM | 60.8 µM | > 100 µM | > 100 µM | > 100 µM | 5.94 µM | 40.6 µM | 1.82 µM | 5.78 µM | 7.59 µM | > 100 µM | 27.1 µM | > 100 µM | 5.15 µM | > 100 µM |
| Cc1c(-c2ccc(N3CCc4cccc(C(=O)Nc5nc6ccccc6s5)c4C3)nc2C(=O)O)cnn1CC12CC3CC(CC(C3)C1)C2 | < 0.01 µM | 10.4 µM | 4.37 µM | 19.6 µM | 6.99 µM | 21.3 µM | 0.63 µM | 10.9 µM | < 0.0329 µM | 1.34 µM | 3.43 µM | 18.7 µM | < 0.0177 µM | 2.86 µM | < 0.01 µM | – | 2.99 µM | 13.5 µM | 3.65 µM | 15.4 µM |
| COc1cc([C@H]2c3cc(O)c(OC)cc3C[C@]3(O)[C@@H]2CO[C@@H]3O)ccc1O | – | > 100 µM | – | > 100 µM | – | > 100 µM | – | > 100 µM | – | > 100 µM | – | > 100 µM | – | > 100 µM | – | > 100 µM | – | > 100 µM | – | > 100 µM |
| Cc1cccc(Cc2cnc(NC(=O)CCCOc3ccc(Cl)cc3)s2)c1 | 3.68 µM | > 100 µM | > 100 µM | > 100 µM | > 100 µM | > 100 µM | 4.46 µM | > 100 µM | 9.46 µM | > 100 µM | 2.24 µM | 5.1 µM | 4.23 µM | > 100 µM | 5.72 µM | > 100 µM | > 100 µM | > 100 µM | 9.45 µM | > 100 µM |
| Cc1c2cc[n+](C)cc2c(C)c2c1[nH]c1ccc(Oc3ccccc3)cc12 | – | 18.6 µM and 22.9 µM | 0.23 µM | 0.887 µM and 4.09 µM | – | > 73.5 µM and 21.4 µM | – | 5.25 µM | – | > 47.9 µM and 39.6 µM | 2.18 µM and 4.06 µM | – | – | 23.8 µM and 16.1 µM | – | > 43.7 µM and 12.7 µM | 1.55 µM and 3.43 µM | > 71.2 µM and 30.2 µM | – | 7.5 µM and 7.54 µM |
| O=C(/C=C/c1ccc(OCC(=O)N2CCN(c3ccccc3)CC2)cc1)c1ccccc1 | – | > 25.6 µM | – | > 82.9 µM | – | > 100 µM | – | > 100 µM | – | > 72.4 µM | – | 30.8 µM | – | > 27.2 µM | – | > 25.2 µM | – | > 79.4 µM | – | > 59.7 µM |
| Nc1ccc2ncc(Nc3ccc(Cl)c(Cl)c3)nc2c1 | – | 65.6 µM | – | 81.4 µM | – | > 100 µM | – | 32.9 µM | – | 32.8 µM | – | 38.3 µM | – | > 100 µM | – | 65.1 µM | – | > 100 µM | – | 50.9 µM |
| O=C(c1ccccc1)c1ccc(N2C(=O)C3C4c5ccccc5C(/C=C/C(=O)c5ccccn5)(c5ccccc54)C3C2=O)cc1 (stereo unspecified) | 0.976 µM | > 100 µM | 3.72 µM | > 100 µM | > 81.7 µM | > 100 µM | 3.72 µM | 20.8 µM | 1.72 µM | 3.34 µM | 1.9 µM | 28.1 µM | 2.49 µM | 53.3 µM | 2.29 µM | > 100 µM | 6.68 µM | > 100 µM | 2.21 µM | 7.44 µM |
| CCOC(=O)c1c(/C=N\Nc2ccccc2)nc2ccccc2c1-c1ccccc1 | – | 88 µM | – | > 100 µM | – | > 100 µM | – | 53 µM | – | 77 µM | – | 50.1 µM | – | 83.8 µM | – | 68.8 µM | – | > 100 µM | – | 76.9 µM |
